In patent US20260158017A1, “KIF18A INHIBITOR” (WIGEN BIOMEDICINE TECHNOLOGY (SHANGHAI) CO., LTD., priority 2021, published 2026):

Experiments:
[1] = target: T1, Recombinant human KIF18A (1-467His-tagged) protein (Homo sapiens, UniProt Q8NI77); experiment: KIF18A enzyme assay (microtubule-stimulated ATPase activity, ADP-Glo); assay type: biochemical; conditions: 30 nM KIF18A, 75 μM ATP, 30 μg/mL pig microtubules; read-out: Inhibitory activity against KIF18A IC50
T1 construct: Recombinant human KIF18A (1-467His-tagged) protein; His; made in house
Outline: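 Buffer 15 mM Tris pH 7.5, 10 mM MgCl2, 0.01% Pluronic F-68, 1 μM paclitaxel, 30 μg/mL pig microtubules; reactions at room temperature. IC50 from inhibition relative to DMSO.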

HCT116 cells = experiment: In vitro anti-proliferative activity against HCT116 cells (intracellular ATP content, 72 h); assay type: cell-based; conditions: Homo sapiens, HCT-116, 72 h after dosing
Procedure: Biological Example 3. In Vitro Anti-Proliferative Activity of the Compounds of the Present Invention Against HCT116 Cells
(§1) HCT116 cells were seeded on a 384-well plate at 3000 cells/well. After overnight adherence culture, DMSO or the compounds serially 1:5-diluted from 5 μM were added. The viability of the cells was assessed 72 h after dosing by measuring the intracellular ATP content. The inhibition percentages of viable cells by the compounds were calculated by comparing with the DMSO group, and the IC 50 values were also calculated.

HT-29 cells = experiment: In vitro anti-proliferative activity against HT-29 cells (intracellular ATP content, 72 h); assay type: cell-based; conditions: Homo sapiens, 72 h after dosing
Procedure: Biological Example 2. In Vitro Anti-Proliferative Activity of the Compounds of the Present Invention Against HT-29 Cells
as §1, with “HT-29” for “HCT116”, “IC50” for “IC 50”

[2] = system: Histone H3 Ser10 sites in HT29 cells; experiment: Phosphorylation assay of histone H3 Ser10 sites in HT29 cells (immunofluorescence assay); assay type: cell-based; conditions: Homo sapiens, HT-29, 6 h after addition, FITC/DAPI ratio
Procedure: Biological Example 5. Phosphorylation Assay of Histone H3 Ser10 Sites in HT29 Cells (Immunofluorescence Assay)
HT29 cells were seeded in a 96-well plate (Fisher 160376) at 8000 cells/well. The next day, the serially diluted compounds were added. 6 h after the addition of the compounds, the cells were washed once with 1×PBS, immobilized with 4% PFA for 15 min, further washed three times with 1×PBS, and permeabilized with 0.02% Triton-X100 for 10 min. A blocking buffer was then added for blocking for 15-30 min, and 1:3000-diluted primary antibodies (Phospho-Histone H3 (Ser10) (D7N8E) XP® Rabbit mAb #53348) were added. The plate was placed at 4° C. overnight. The next day, the cells were washed three times with 1×PBS, and 1:1000-diluted secondary antibodies (Fluorescein (FITC)-conjugated Affinipure Goat Anti-Rabbit IgG (H+L)) were added. The cells were incubated in the dark for 1-2 h and washed three times with 1×PBS. The nuclei were stained with DAPI, and after the staining was completed, photographs were taken using an MD ImageXpress Pico personal high-content imaging analysis system. The ratio of phosphorylation (FITC/DAPI) at H3 Ser10 sites in HT29 cells was quantified. To evaluate the effects of the compounds on the mitosis phase of HT29 cells, the EC50 values of the compounds were calculated.

[3] = system: HT29 subcutaneous xenograft tumor; experiment: In vivo pharmacodynamic study, mouse HT29 subcutaneous xenograft tumor model; set-up: species or system BALB/c nude mice; conditions: for Tumor volume on day 1 of treatment / Tumor volume on day 28 of treatment / TGI (tumor growth inhibition): 80 mg/kg intragastric once daily; for Tumor volume on day 1 of treatment: baseline day 1; for TGI (tumor growth inhibition): day 28 vs day 1; for Inhibitory effect on HT29 mouse subcutaneous xenograft tumor (in words): 80 mg/kg, comparison with AMG650
Procedure: Biological Example 4. In Vivo Pharmacodynamic Study-Mouse HT29 Subcutaneous Xenograft Tumor Model
BALB/c nude mice were inoculated subcutaneously with 5×10^6 HT29 cells on the left dorsal side. After the tumors grew to 100-150 mm^3, the mice were randomly divided into the following groups for intragastric administration once daily: group 1: vehicle control group; group 2: compound 661 (80 mg/kg); group 3: compound 669 (80 mg/kg); group 4: compound 677 (80 mg/kg); group 5: compound 714 (80 mg/kg); group 6: compound 727 (80 mg/kg); group 7: compound 740 (80 mg/kg); and group 8: AMG650 (80 mg/kg). The tumor volume was measured twice weekly and at the end of treatment.

T1 sequence (Q8NI77 1-467): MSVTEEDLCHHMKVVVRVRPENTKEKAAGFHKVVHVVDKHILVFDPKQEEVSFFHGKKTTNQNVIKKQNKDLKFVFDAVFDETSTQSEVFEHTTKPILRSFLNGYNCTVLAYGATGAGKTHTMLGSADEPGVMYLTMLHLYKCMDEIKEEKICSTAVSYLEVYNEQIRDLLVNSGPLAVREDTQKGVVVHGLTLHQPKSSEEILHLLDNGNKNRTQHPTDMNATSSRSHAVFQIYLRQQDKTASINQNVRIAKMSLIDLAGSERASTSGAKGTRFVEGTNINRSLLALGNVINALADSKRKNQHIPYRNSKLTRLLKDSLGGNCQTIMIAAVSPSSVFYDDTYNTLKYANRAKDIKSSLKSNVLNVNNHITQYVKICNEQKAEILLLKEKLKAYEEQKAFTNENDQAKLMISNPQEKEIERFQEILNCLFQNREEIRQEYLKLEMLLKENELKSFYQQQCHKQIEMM
T1 sequence (P02550 whole entry partner): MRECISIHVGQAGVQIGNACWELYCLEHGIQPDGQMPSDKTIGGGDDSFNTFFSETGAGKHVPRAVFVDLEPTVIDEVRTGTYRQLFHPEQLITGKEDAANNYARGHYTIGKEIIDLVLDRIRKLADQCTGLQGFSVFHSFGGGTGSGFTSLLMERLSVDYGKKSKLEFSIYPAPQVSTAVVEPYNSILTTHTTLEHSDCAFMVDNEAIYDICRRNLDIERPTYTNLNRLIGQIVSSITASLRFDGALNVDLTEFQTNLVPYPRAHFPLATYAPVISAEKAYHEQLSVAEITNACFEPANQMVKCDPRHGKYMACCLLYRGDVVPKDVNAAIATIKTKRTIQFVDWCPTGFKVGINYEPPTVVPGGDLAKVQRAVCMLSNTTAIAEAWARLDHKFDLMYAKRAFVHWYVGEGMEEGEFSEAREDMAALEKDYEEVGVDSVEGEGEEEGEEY
T1 sequence (P02554 whole entry partner): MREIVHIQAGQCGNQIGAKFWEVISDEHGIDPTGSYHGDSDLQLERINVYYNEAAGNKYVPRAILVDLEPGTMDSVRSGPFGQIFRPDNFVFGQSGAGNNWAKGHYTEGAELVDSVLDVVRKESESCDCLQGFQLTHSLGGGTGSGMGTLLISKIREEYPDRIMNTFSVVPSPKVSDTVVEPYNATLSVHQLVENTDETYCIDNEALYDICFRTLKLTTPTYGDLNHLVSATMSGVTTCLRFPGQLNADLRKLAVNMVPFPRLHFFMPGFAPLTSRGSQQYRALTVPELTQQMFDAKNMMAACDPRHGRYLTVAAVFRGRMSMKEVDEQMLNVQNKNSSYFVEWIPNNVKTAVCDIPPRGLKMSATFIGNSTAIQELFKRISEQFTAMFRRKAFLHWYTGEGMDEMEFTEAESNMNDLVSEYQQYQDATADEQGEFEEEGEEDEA

| IC50 [1] | IC50 (HCT116 cells) | IC50 (HT-29 cells) | EC50 [2] | Structure (SMILES) | Tumor volume on day 1 of treatment [3] | Tumor volume on day 28 of treatment [3] | TGI (tumor growth inhibition) [3] | Inhibitory effect on HT29 mouse subcutaneous xenograft tumor (in words) [3] |
| --- | --- | --- | --- | --- | --- | --- | --- | --- |
| ≤ 100 nM | > 10000 nM | 75.3 nM |  | O=C(Nc1ccc([N+](=O)[O-])c(N2CCC(F)(F)CC2)c1)c1ccc(NS(=O)(=O)CCO)cc1N1CCC2(CC1)CC2 [Compound 1] |  |  |  |  |
| ≤ 100 nM | > 10000 nM | 1600 nM |  | C[C@H]1CN(c2cc(NC(=O)c3ccc(NS(=O)(=O)CCO)cc3N3CCC4(CC3)CC4)ccc2[N+](=O)[O-])CCO1 [Compound 3] |  |  |  |  |
| ≤ 100 nM | > 10000 nM | 191 nM |  | O=C(Nc1ccc([N+](=O)[O-])c(N2CC(F)(F)C2)c1)c1ccc(NS(=O)(=O)CCO)cc1N1CCC2(CC1)CC2 [Compound 4] |  |  |  |  |
| ≤ 100 nM | > 10000 nM | 826 nM |  | O=C(Nc1ccc([N+](=O)[O-])c(N2CCC3(CC3)C2)c1)c1ccc(NS(=O)(=O)CCO)cc1N1CCC2(CC1)CC2 [Compound 6] |  |  |  |  |
| ≤ 100 nM | > 10000 nM | 339 nM |  | O=C(Nc1ccc([N+](=O)[O-])c(OC2CCC2)c1)c1ccc(NS(=O)(=O)CCO)cc1N1CCC2(CC1)CC2 [Compound 7] |  |  |  |  |
| ≤ 100 nM | > 10000 nM | 55.3 nM | 45.5 nM | O=C(Nc1ccc([N+](=O)[O-])c(N2CCC(F)(F)CC2)n1)c1ccc(NS(=O)(=O)CCO)cc1N1CCC2(CC1)CC2 [Compound 65] |  |  |  |  |
| ≤ 100 nM | > 10000 nM | > 2000 nM |  | O=C(Nc1ccc([N+](=O)[O-])c(N2CCC(F)(F)CC2)c1)c1cnc(NS(=O)(=O)CCO)cc1N1CCC2(CC1)CC2 [Compound 97] |  |  |  |  |
| ≤ 100 nM | > 10000 nM | 134 nM |  | O=C(Nc1ccc([N+](=O)[O-])c(N2CCC(F)(F)CC2)n1)c1cnc(NS(=O)(=O)CCO)cc1N1CCC2(CC1)CC2 [Compound 129] |  |  |  |  |
| ≤ 100 nM | > 10000 nM | 190 nM |  | COc1ccc(NC(=O)c2ccc(NS(=O)(=O)CCO)cc2N2CCC3(CC2)CC3)nc1N1CCO[C@H](C)C1 [Compound 258] |  |  |  |  |
| ≤ 100 nM | > 10000 nM | 282 nM |  | COc1ccc(NC(=O)c2ccc(NS(=O)(=O)CCO)cc2N2CCC3(CC2)CC3)nc1N1CCO[C@@H](C)C1 [Compound 259] |  |  |  |  |
| ≤ 100 nM | > 10000 nM | 55.2 nM |  | COc1ccc(NC(=O)c2ccc(NS(=O)(=O)CCO)cc2N2CCC3(CC2)CC3)nc1N1CC(F)(F)C1 [Compound 260] |  |  |  |  |
| ≤ 100 nM | > 10000 nM | 75.7 nM |  | COc1ccc(NC(=O)c2ccc(NS(=O)(=O)CCO)cc2N2CCC3(CC2)CC3)nc1OCCC(F)(F)F [Compound 261] |  |  |  |  |
| ≤ 100 nM | > 10000 nM | 242 nM |  | COc1ccc(NC(=O)c2ccc(NS(=O)(=O)CCO)cc2N2CCC3(CC2)CC3)nc1N1CCC2(CC2)C1 [Compound 262] |  |  |  |  |
| ≤ 100 nM | > 10000 nM | 85.7 nM |  | COc1ccc(NC(=O)c2ccc(NS(=O)(=O)CCO)cc2N2CCC3(CC2)CC3)nc1OC1CCC1 [Compound 263] |  |  |  |  |
| ≤ 100 nM |  |  | 8.5 nM | COc1ccc(NC(=O)c2ccc(S(=O)(=O)NCCO)cc2N2CCC3(CC2)CC3)nc1N1CCC(F)(F)CC1 [Compound 273] |  |  |  |  |
| ≤ 100 nM | > 10000 nM | 27.7 nM |  | COc1ccc(NC(=O)c2cnc(NS(=O)(=O)CCO)cc2N2CCC3(CC2)CC3)nc1N1CCC(F)(F)CC1 [Compound 289] |  |  |  |  |
| ≤ 100 nM | > 10000 nM | 40.4 nM |  | COc1ccc(NC(=O)c2cnc(S(=O)(=O)NCCO)cc2N2CCC3(CC2)CC3)nc1N1CCC(F)(F)CC1 [Compound 305] |  |  |  |  |

| IC50 [1] | IC50 (HCT116 cells) | IC50 (HT-29 cells) | EC50 [2] | Structure (SMILES) | Tumor volume on day 1 of treatment [3] | Tumor volume on day 28 of treatment [3] | TGI (tumor growth inhibition) [3] | Inhibitory effect on HT29 mouse subcutaneous xenograft tumor (in words) [3] |
| --- | --- | --- | --- | --- | --- | --- | --- | --- |
| ≤ 100 nM | > 10000 nM | 48.8 nM |  | COc1ccc(C(=O)Nc2ccc(S(=O)(=O)NCCO)cc2N2CCC3(CC2)CC3)nc1N1CCC(F)(F)CC1 [Compound 337] |  |  |  |  |
| ≤ 100 nM | > 10000 nM | 146 nM |  | O=C(Nc1ccc(OCF)c(N2CCC(F)(F)CC2)c1)c1ccc(NS(=O)(=O)CCO)cc1N1CCC2(CC1)CC2 [Compound 385] |  |  |  |  |
| ≤ 100 nM | > 10000 nM | 97.9 nM |  | CSc1ccc(NC(=O)c2ccc(NS(=O)(=O)CCO)cc2N2CCC3(CC2)CC3)nc1N1CCC(F)(F)CC1 [Compound 593] |  |  |  |  |
|  | > 10000 nM | 75.8 nM | 21.7 nM | CNc1ccc(NC(=O)c2ccc(NS(=O)(=O)CCO)cc2N2CCC3(CC2)CC3)cc1N1CCC(F)(F)CC1 [Compound 641] |  |  |  |  |
|  | > 10000 nM | 71.3 nM | 69.6 nM | CN(C)c1ccc(NC(=O)c2ccc(NS(=O)(=O)CCO)cc2N2CCC3(CC2)CC3)cc1N1CCC(F)(F)CC1 [Compound 645] |  |  |  |  |
|  | > 10000 nM | 35 nM | 28.3 nM | COc1ccc(NC(=O)c2ccc(NS(=O)(=O)CCOC(=O)C(C)C)cc2N2CCC3(CC2)CC3)nc1N1CCC(F)(F)CC1 [Compound 663] |  |  |  |  |
|  | > 10000 nM | 25.8 nM |  | COc1ccc(C(=O)Nc2ccc(NS(=O)(=O)CCOC(C)=O)cc2N2CCC3(CC2)CC3)nc1N1CCC(F)(F)CC1 [Compound 669] | 121 mm^3 | 1158 mm^3 | 30% |  |
|  |  |  |  | COc1ccc(NC(=O)c2ccc(S(=O)(=O)NCCOC(C)=O)cc2N2CCC3(CC2)CC3)nc1N1CCC(F)(F)CC1 [Compound 677] | 121 mm^3 | 797 mm^3 | 55% |  |
|  | > 10000 nM | 71.2 nM |  | CCOc1ccc(NC(=O)c2ccc(NS(=O)(=O)CCO)cc2N2CCC3(CC2)CC3)nc1N1CCC(F)(F)CC1 [Compound 702] |  |  |  |  |
|  | > 10000 nM | 184 nM |  | CN(C)c1ccc(C(=O)Nc2ccc(NS(=O)(=O)CCO)cc2N2CCC3(CC2)CC3)cc1N1CCC(F)(F)CC1 [Compound 703] |  |  |  |  |
|  | > 10000 nM | 64.2 nM |  | CNc1ccc(C(=O)Nc2ccc(NS(=O)(=O)CCO)cc2N2CCC3(CC2)CC3)cc1N1CCC(F)(F)CC1 [Compound 704] |  |  |  |  |
|  | > 10000 nM | 146 nM |  | CN(C)c1ccc(C(=O)Nc2ccc(NS(=O)(=O)CCO)cc2N2CCC3(CC2)CC3)nc1N1CCC(F)(F)CC1 [Compound 705] |  |  |  |  |
|  |  |  |  | COc1ccc(C(=O)Nc2ccc(NS(=O)(=O)CCOC(=O)[C@@H](N)C(C)C)cc2N2CCC3(CC2)CC3)nc1N1CCC(F)(F)CC1 [Compound 727] | 121 mm^3 | 519 mm^3 | 73% | stronger inhibitory effects |
|  |  |  |  | COc1ccc(NC(=O)c2ccc(S(=O)(=O)NCCOC(=O)[C@@H](N)C(C)C)cc2N2CCC3(CC2)CC3)nc1N1CCC(F)(F)CC1 [Compound 740] | 121 mm^3 | 605 mm^3 | 67% | stronger inhibitory effects |
|  | > 10000 nM | 52.9 nM |  | COc1ccc(NC(=O)c2ccc(NS(=O)(=O)CCO)cc2N2CCC(C)(C(F)(F)F)CC2)nc1N1CCC(F)(F)CC1 [Compound 833] |  |  |  |  |
|  | > 10000 nM | 70.7 nM |  | COc1ccc(NC(=O)c2ccc(NS(=O)(=O)CCO)cc2N2CCC3(CC2)CC3)nc1NCCC(F)(F)F [Compound 835] |  |  |  |  |
|  | > 10000 nM | 253 nM |  | COc1c(C)cc(NC(=O)c2ccc(NS(=O)(=O)CCO)cc2N2CCC3(CC2)CC3)nc1N1CCC(F)(F)CC1 [Compound 836] |  |  |  |  |
